Measurements taken from patent publication US20250195521A1 (Revolution Medicines, Inc., priority 2020, published 2025).

How the values were obtained:
[1] = tested on: NCI-H358 cells (K-Ras G12C); assay: CellTiter-Glo cell viability, NCI-H358; assay type: cell-based, human; conditions: Homo sapiens, NCI-H358, 120 h, K-Ras G12C, 5-day treatment; read-out: H358 Cell Viability IC50
Method in brief: (§1)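 Viability is read as luminescence after five days of compound exposure, with plates first equilibrated to room temperature for roughly 30 minutes. Each signal is expressed as a percentage of the mean DMSO control, and curves are fitted by four-parameter logistic regression.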

KRAS G12C = KRAS G12C (Homo sapiens (Human), UniProt P01116+P62937, G12C); assay: Ras-Raf disruption/FRET/MOA assay (BRAF RBD, Cyclophilin A); assay type: biochemical; conditions: read-out: KRAS G12C FRET IC50
Method in brief: (§2)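 Ras-GMPPNP (12.5 nM), BRAF RBD (50 nM) and 25 μM Cyclophilin A were incubated with compound for 3 h at 25° C, then detected 1.5 h with anti-His Eu and anti-GST APC; IC50 values follow from the reduced TR-FRET ratio.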

KRAS G12D = KRAS G12D (Homo sapiens (Human), UniProt P01116+P62937, G12D); assay: as above; assay type: biochemical; conditions: read-out: KRAS G12D FRET IC50
Method in brief: as §2

KRAS G12S = KRAS G12S (Homo sapiens (Human), UniProt P01116+P62937, G12S); assay: as above; assay type: biochemical; conditions: read-out: KRAS G12S FRET IC50
Method in brief: as §2

KRAS G12V = KRAS G12V (Homo sapiens (Human), UniProt P01116+P62937, G12V); assay: as above; assay type: biochemical; conditions: read-out: KRAS G12V FRET IC50
Method in brief: as §2

KRAS G13C = KRAS G13C (Homo sapiens (Human), UniProt P01116+P62937, G13C); assay: as above; assay type: biochemical; conditions: read-out: KRAS G13C FRET IC50
Method in brief: as §2

KRAS G13D = KRAS G13D (Homo sapiens (Human), UniProt P01116+P62937, G13D); assay: as above; assay type: biochemical; conditions: read-out: KRAS G13D FRET data IC50
Method in brief: as §2

KRAS WT = KRAS WT (Homo sapiens (Human), UniProt P01116+P62937); assay: as above; assay type: biochemical; conditions: read-out: KRAS WT FRET data IC50
Method in brief: as §2

NRAS G12C = NRAS G12C (Homo sapiens (Human), UniProt P01111+P62937, G12C); assay: as above; assay type: biochemical; conditions: read-out: NRAS G12C FRET data IC50
Method in brief: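 TR-FRET read after 1.5 h with 10 nM anti-His Eu-W1024 and 50 nM anti-GST APC, following 3 h at 25 °C of GMPPNP-loaded His6-Ras (12.5 nM), GST-BRAF RBD (50 nM) and Cyclophilin A (25 μM) with compound from 30 μM final, 10 points, 3-fold. IC50 reported; pH 7.3 HEPES, 100 mM NaCl.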

[2] = tested on: K-Ras G12C (NCI-H358 cells); assay: Potency assay: pERK in NCI-H358 cells; assay type: cell-based, human; conditions: Homo sapiens; NCI-H358 cells, 4 hours; read-out: pERK EC50 (H358 KRAS G12C)
Method in brief: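 Cells plated the day before were exposed for 4 h at 37° C, 5% CO2 to a 10-point, 3-fold DMSO dilution series (10 mM top stock), in duplicate. Phospho-ERK was read by AlphaLISA SureFire Ultra or by In-Cell Western with DRAQ5 DNA stain, and IC50 came from a 4-parameter sigmoidal fit.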

NCI-H358 (K-Ras G12C) = assay: CellTiter-Glo cell viability assay, NCI-H358; assay type: cell-based, human; conditions: Homo sapiens, NCI-H358, 120 h, 5-day treatment; read-out: H358 Cell Viability assay data (K-Ras G12C, IC50)
Method in brief: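 Viability is measured as ATP-dependent luminescence (CellTiter-Glo) five days into compound treatment. Responses are normalized to vehicle (DMSO) wells and fitted by four-parameter logistic regression.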

[3] = tested on: Capan-1 cells (K-Ras G12V); assay: CellTiter-Glo cell viability, Capan-1; assay type: cell-based, human; conditions: Homo sapiens, CAPAN-1, 120 h, K-Ras G12V, 5-day treatment; read-out: Capan-1 Cell Viability IC50
Method in brief: as §1

Chain of NRAS G12C (P01111 whole entry G12C): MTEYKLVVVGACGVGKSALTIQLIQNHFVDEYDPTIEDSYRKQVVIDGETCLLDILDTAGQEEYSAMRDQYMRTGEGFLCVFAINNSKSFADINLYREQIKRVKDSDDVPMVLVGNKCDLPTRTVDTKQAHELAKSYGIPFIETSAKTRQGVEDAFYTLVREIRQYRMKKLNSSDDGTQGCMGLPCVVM
Chain of NRAS G12C (P62937 whole entry): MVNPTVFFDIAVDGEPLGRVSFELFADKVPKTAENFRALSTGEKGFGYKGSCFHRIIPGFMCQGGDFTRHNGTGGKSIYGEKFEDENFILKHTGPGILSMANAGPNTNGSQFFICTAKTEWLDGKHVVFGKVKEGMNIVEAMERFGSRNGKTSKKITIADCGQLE
Chain of KRAS G13D (P01116 other isoform, or with tags, fused parts or gaps G13D): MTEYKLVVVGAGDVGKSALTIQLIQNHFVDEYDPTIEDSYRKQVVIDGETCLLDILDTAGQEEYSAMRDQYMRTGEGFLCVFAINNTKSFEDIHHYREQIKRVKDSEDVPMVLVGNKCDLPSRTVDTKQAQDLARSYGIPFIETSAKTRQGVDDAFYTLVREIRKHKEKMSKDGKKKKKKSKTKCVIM
Chain of KRAS G13D (P62937 whole entry): as the sequence (P62937 whole entry) above
Chain of KRAS G12S (P01116 other isoform, or with tags, fused parts or gaps G12S): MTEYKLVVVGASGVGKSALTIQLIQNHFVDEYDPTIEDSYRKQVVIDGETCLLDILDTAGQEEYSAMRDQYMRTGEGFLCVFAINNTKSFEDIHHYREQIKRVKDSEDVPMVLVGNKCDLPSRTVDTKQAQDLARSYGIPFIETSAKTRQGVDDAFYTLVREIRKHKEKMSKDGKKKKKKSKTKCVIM
Chain of KRAS G12S (P62937 whole entry): as the sequence (P62937 whole entry) above
Chain of KRAS WT (P01116 other isoform, or with tags, fused parts or gaps): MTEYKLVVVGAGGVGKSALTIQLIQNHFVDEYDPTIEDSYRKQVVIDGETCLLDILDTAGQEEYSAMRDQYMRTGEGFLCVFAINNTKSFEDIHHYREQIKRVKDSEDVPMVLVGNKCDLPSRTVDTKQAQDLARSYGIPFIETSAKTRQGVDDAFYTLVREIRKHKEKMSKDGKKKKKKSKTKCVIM
Chain of KRAS WT (P62937 whole entry): as the sequence (P62937 whole entry) above
Chain of KRAS G13C (P01116 other isoform, or with tags, fused parts or gaps G13C): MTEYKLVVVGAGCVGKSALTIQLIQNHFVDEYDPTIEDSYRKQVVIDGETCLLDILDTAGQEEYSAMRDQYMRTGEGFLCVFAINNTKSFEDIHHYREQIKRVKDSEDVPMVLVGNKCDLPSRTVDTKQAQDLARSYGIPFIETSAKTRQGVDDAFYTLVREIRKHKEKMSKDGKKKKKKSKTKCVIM
Chain of KRAS G13C (P62937 whole entry): as the sequence (P62937 whole entry) above
Chain of KRAS G12C (P01116-2 other isoform, or with tags, fused parts or gaps G12C): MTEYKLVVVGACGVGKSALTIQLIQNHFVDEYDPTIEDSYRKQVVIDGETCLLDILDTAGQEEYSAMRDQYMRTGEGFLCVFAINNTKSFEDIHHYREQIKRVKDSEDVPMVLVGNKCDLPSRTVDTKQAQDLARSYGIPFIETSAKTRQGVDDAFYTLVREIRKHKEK
Chain of KRAS G12C (P62937 whole entry): as the sequence (P62937 whole entry) above
Chain of KRAS G12D (P01116 other isoform, or with tags, fused parts or gaps G12D): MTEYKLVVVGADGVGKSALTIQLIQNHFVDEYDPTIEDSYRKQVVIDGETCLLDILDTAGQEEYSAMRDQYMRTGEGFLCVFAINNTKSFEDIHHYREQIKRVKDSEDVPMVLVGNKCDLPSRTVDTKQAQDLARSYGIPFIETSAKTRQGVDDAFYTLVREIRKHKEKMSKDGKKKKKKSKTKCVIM
Chain of KRAS G12D (P62937 whole entry): as the sequence (P62937 whole entry) above
Chain of KRAS G12V (P01116 other isoform, or with tags, fused parts or gaps G12V): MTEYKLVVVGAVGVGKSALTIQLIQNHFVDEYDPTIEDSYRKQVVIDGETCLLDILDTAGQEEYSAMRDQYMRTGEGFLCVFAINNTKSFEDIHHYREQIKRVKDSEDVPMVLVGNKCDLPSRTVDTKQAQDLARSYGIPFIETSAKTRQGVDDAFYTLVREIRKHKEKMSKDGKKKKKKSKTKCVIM
Chain of KRAS G12V (P62937 whole entry): as the sequence (P62937 whole entry) above

Structure (SMILES)	IC50 [1] [nM]	IC50 (KRAS G12C) [nM]	IC50 (KRAS G12D) [nM]	IC50 (KRAS G12S) [nM]	IC50 (KRAS G12V) [nM]	IC50 (KRAS G13C) [nM]	IC50 (KRAS G13D) [nM]	IC50 (KRAS WT) [nM]	IC50 (NRAS G12C) [nM]	EC50 [2] [µM]	IC50 (NCI-H358 (K-Ras G12C)) [nM]	IC50 [3] [nM]
CCn1c(-c2cnccc2COC)c2c3cc(ccc31)-c1cc(O)cc(c1)C[C@H](NC(=O)[C@H](C(C)C)N(C)C(=O)[C@H]1CCN(C(=O)CO)C1)C(=O)N1CCC[C@H](N1)C(=O)OCC(C)(C)C2 [Compound A20]	1000 to 10000	10 to 100	1000 to 10000	100 to 1000	100 to 1000	100 to 1000	100 to 1000	100 to 1000	100 to 1000	< 5	10 to 100	
CCn1c(-c2cnccc2COC)c2c3cc(ccc31)-c1cc(O)cc(c1)C[C@H](NC(=O)[C@H](C(C)C)N(C)C(=O)[C@H]1CCN(C[C@@H](C)O)C1)C(=O)N1CCC[C@H](N1)C(=O)OCC(C)(C)C2 [Compound A31]	> 10000	100 to 1000	100 to 1000	100 to 1000	1000 to 10000	10 to 100	100 to 1000	100 to 1000	100 to 1000	< 5	10 to 100	
CCn1c(-c2cnccc2COC)c2c3cc(ccc31)-c1cc(O)cc(c1)C[C@H](NC(=O)[C@H](C(C)C)N(C)C(=O)CNC(=N)N)C(=O)N1CCC[C@H](N1)C(=O)OCC(C)(C)C2 [Compound A68]	> 10000	10 to 100	100 to 1000	10 to 100	100 to 1000	10 to 100	100 to 1000	100 to 1000	100 to 1000		100 to 1000	
CCN(C)C(=O)N(C)[C@H](C(=O)N[C@H]1Cc2nc(cs2)-c2ccc3c(c2)c(c(-c2cccnc2[C@H](C)OC)n3CC)CC(C)(C)COC(=O)[C@@H]2CCCN(N2)C1=O)C(C)C [Compound A336]	10 to 100	10 to 100	100 to 1000	100 to 1000	100 to 1000	100 to 1000	100 to 1000	10 to 100	10 to 100	< 5		10 to 100
CCn1c(-c2cccnc2[C@H](C)OC)c2c3cc(ccc31)-c1cc(O)cc(c1)C[C@H](NC(=O)[C@H](C(C)C)N(C)C(=O)[C@@H]1CCN(C(=O)[C@]3(C)CCCN3C)C1)C(=O)N1CCC[C@H](N1)C(=O)OCC(C)(C)C2 [Compound A342]	10 to 100	10 to 100	10 to 100	10 to 100	10 to 100	10 to 100	10 to 100	10 to 100	10 to 100	< 5		100 to 1000
CCn1c(-c2cccnc2[C@H](C)OC)c2c3cc(ccc31)-c1cc(O)cc(c1)C[C@H](NC(=O)[C@H](C(C)C)N(C)C(=O)[C@H]1CCN(C(=O)[C@@]3(C)CCCN3C)C1)C(=O)N1CCC[C@H](N1)C(=O)OCC(C)(C)C2 [Compound A379]	10 to 100	10 to 100	10 to 100	10 to 100	10 to 100	10 to 100	10 to 100	10 to 100	10 to 100	< 5		100 to 1000
CCn1c(-c2cccnc2[C@H](C)OC)c2c3cc(ccc31)-c1cc(O)cc(c1)C[C@H](NC(=O)[C@H](C(C)C)N(C)C(=O)[C@H]1CC[C@@H](C(N)=O)O1)C(=O)N1CCC[C@H](N1)C(=O)OCC(C)(C)C2 [Compound A414]	100 to 1000	10 to 100	100 to 1000	10 to 100	100 to 1000	10 to 100	100 to 1000	100 to 1000	10 to 100	< 5		1000 to 10000
CCn1c(-c2cccnc2[C@H](C)OC)c2c3cc(ccc31)-c1cc(O)cc(c1)C[C@H](NC(=O)[C@H](C(C)C)N(C)C(=O)[C@@H]1COC[C@@H]1N)C(=O)N1CCC[C@H](N1)C(=O)OCC(C)(C)C2 [Compound A418]	100 to 1000	10 to 100	100 to 1000	10 to 100	100 to 1000	10 to 100	100 to 1000	10 to 100	10 to 100	< 5		1000 to 10000

The next lines start with results.

IC50 [1] [nM]	IC50 (KRAS G12C) [nM]	IC50 (KRAS G12D) [nM]	IC50 (KRAS G12S) [nM]	IC50 (KRAS G12V) [nM]	IC50 (KRAS G13C) [nM]	IC50 (KRAS G13D) [nM]	IC50 (KRAS WT) [nM]	IC50 (NRAS G12C) [nM]	EC50 [2] [µM]	IC50 (NCI-H358 (K-Ras G12C)) [nM]	Structure (SMILES)	IC50 [3] [nM]
100 to 1000	10 to 100	100 to 1000	100 to 1000	100 to 1000	100 to 1000	100 to 1000	100 to 1000	10 to 100	< 5		CCn1c(-c2cccnc2[C@H](C)OC)c2c3cc(ccc31)-c1csc(n1)C[C@H](NC(=O)[C@H](C(C)C)N(C)C(=O)N1CC(N)C1)C(=O)N1CCC[C@H](N1)C(=O)OCC(C)(C)C2 [Compound A343]	100 to 1000
10 to 100	10 to 100	10 to 100	10 to 100	10 to 100	10 to 100	10 to 100	10 to 100	10 to 100	< 5		CCn1c(-c2cccnc2[C@H](C)OC)c2c3cc(ccc31)-c1cc(O)cc(c1)C[C@H](NC(=O)[C@H](C(C)C)N(C)C(=O)[C@H]1CCN(C(=O)OC3CN(C)C3)C1)C(=O)N1CCC[C@H](N1)C(=O)OCC(C)(C)C2 [Compound A348]	100 to 1000
100 to 1000	10 to 100	100 to 1000	100 to 1000	100 to 1000	100 to 1000	100 to 1000	10 to 100	100 to 1000	< 5		CCn1c(-c2cccnc2[C@H](C)OC)c2c3cc(ccc31)-c1cc(O)cc(c1)C[C@H](NC(=O)[C@H](C(C)C)N(C)C(=O)C13CCC(CC1)O3)C(=O)N1CCC[C@H](N1)C(=O)OCC(C)(C)C2 [Compound A412]	100 to 1000
100 to 1000	10 to 100	100 to 1000	100 to 1000	100 to 1000	10 to 100	100 to 1000	10 to 100	10 to 100	< 5		CCn1c(-c2cccnc2[C@H](C)OC)c2c3cc(ccc31)-c1cc(O)cc(c1)C[C@H](NC(=O)[C@H](C(C)C)N(C)C(=O)C1CC3(CCOCC3)CO1)C(=O)N1CCC[C@H](N1)C(=O)OCC(C)(C)C2 (stereo partly drawn) [Compound A413]	100 to 1000
100 to 1000	100 to 1000	100 to 1000	100 to 1000	100 to 1000	100 to 1000	100 to 1000	100 to 1000	100 to 1000	< 5		CCn1c(-c2cccnc2[C@H](C)OC)c2c3cc(ccc31)-c1cc(O)cc(c1)C[C@H](NC(=O)[C@H](C(C)C)N(C)C(=O)C1(C(F)F)CCCO1)C(=O)N1CCC[C@H](N1)C(=O)OCC(C)(C)C2 (stereo partly drawn) [Compound A416]	100 to 1000
100 to 1000	100 to 1000	100 to 1000	100 to 1000	1000 to 10000	10 to 100	100 to 1000	100 to 1000	100 to 1000	< 5		CCn1c(-c2cccnc2[C@H](C)OC)c2c3cc(ccc31)-c1cc(O)cc(c1)C[C@H](NC(=O)[C@H](C(C)C)N(C)C(=O)[C@H]1[C@@H](N)[C@@H]3CC[C@H]1O3)C(=O)N1CCC[C@H](N1)C(=O)OCC(C)(C)C2 [Compound A421]	1000 to 10000
